Measured values from patent US20190054093A1, “TREATMENT OF SARCOPENIA WITH ECDYSTEROIDS” (priority 2014, published 2019).

Legend:
C2C12 myotubes [1] = experiment: Protein synthesis by radio-labeled leucine incorporation in C2C12 myotubes (Example 3); type: cell-based, mouse
[2] = system: Caspase-3 expression in C2C12 myotubes; experiment: Caspase 3 expression in C2C12 myotubes (quantitative RT-PCR, Example 4); type: cell-based, mouse; details: 24 hours; extracts and turkesterone 0.002, 0.02 and 2 ppm, 20HE 0.001, 0.01 and 1 ppm
Experimental: Experiments similar to those in example 1 have been carried out with two other plant-derived, ecdysteroid-rich extracts. […] Cells between passages 3 and 10 were seeded at a density of 10,000 cells per cm^2. Cells were grown for 48 h until they reached 80-90% confluence. […] Cells were maintained at 37° C. in a humidified 5% CO2 incubator and medium was changed every other day.
For RNA and protein extraction C2C12 myotubes were incubated with 0.002, 0.02 and 2 ppm of Rhaponticum carthamoides extract (RCE) and Cyanotis arachnoidea extract (CAE) or 0.001, 0.01 and 1 ppm of 20-hydroxyecdysone or 0.002, 0.02 and 2 ppm of Turkesterone for 24 hours. These two latter served as positive controls. RNA and protein were extracted using All Prep RNA/Protein Kit (Qiagen, Spain). RNA was stored at −80° C. and protein at −20° C. until further use. Total RNA was quantified using a fluorometric method with Quant-iT kit (Invitrogen, Spain). The cDNA was reverse-transcribed from the RNA extract using RT^2First Stand cDNA kit (Qiagen, Spain). Quantitative real-time RT-PCR for Caspase-3 and Myostatin were carried out using a MX3005P Q-PCR System (Agilent Technologies) and SYBR-Green/ROX detection. The housekeeping gene used was Actb and Mouse XpressRef Universal total RNA (Qiagen, Spain) as a positive control. […] The fold change in gene expression was calculated with ΔΔCt Method.

C2C12 myotubes [3] = type: cell-based, mouse; details: dose response experiment; 16 h
Experimental: After cells reached 80-90% confluence (72 hours post-seeding) the media was replaced with differentiation media (DM): DMEM containing 2% horse serum (PAA; GE HealthCare), 10 mM Hepes (Lonza), 6 mM glutamine, 100 U/mL penicilin and 100 μgr/mL streptomycin (Biochrom). Media was replaced every 2 days, and after 10 days the myoblast has fused into multinucleated myotubes showing a fusion index of 70-80%.
Before cell treatment, a 2000× Botanicals Extracts Stocks solutions were prepared in Biological grade DMSO (Sigma) or Ultrapure H2O (milliQ; Millipore), sonicated for 30 min and Filtered using a 0.22 μm pore size syringe filter membrane (Millipore). […]
Protein synthesis was determined by measuring the incorporation of the tritiated L-Leucine (^3H-Leu) into C2C12 cellular proteins. […] Radioactivity was measured using a liquid scintillation counter (Tri-Carb, Perkin Elmer) and expressed as decay per minute (DPM). Total protein was quantified using Bradford method-based assay (microassay procedure) following the manufacturer's instructions (Biorad protein assay, BioRad Laboratories). Protein synthesis was calculated from the trichloroacetic acid-insoluble radioactivity incorporated per microgram of total protein. Results were expressed as relative increase in L-[3H]-Leucine compared with 100% of not treated Control. […]

[4] = target: T1, recombinant rat androgen receptor (Rattus norvegicus, UniProt P15207); experiment: Androgen receptor binding assay, displacement of [3H]mibolerone; details: concentrations of 1 to 100 μM
T1 sequence (P15207 1-902): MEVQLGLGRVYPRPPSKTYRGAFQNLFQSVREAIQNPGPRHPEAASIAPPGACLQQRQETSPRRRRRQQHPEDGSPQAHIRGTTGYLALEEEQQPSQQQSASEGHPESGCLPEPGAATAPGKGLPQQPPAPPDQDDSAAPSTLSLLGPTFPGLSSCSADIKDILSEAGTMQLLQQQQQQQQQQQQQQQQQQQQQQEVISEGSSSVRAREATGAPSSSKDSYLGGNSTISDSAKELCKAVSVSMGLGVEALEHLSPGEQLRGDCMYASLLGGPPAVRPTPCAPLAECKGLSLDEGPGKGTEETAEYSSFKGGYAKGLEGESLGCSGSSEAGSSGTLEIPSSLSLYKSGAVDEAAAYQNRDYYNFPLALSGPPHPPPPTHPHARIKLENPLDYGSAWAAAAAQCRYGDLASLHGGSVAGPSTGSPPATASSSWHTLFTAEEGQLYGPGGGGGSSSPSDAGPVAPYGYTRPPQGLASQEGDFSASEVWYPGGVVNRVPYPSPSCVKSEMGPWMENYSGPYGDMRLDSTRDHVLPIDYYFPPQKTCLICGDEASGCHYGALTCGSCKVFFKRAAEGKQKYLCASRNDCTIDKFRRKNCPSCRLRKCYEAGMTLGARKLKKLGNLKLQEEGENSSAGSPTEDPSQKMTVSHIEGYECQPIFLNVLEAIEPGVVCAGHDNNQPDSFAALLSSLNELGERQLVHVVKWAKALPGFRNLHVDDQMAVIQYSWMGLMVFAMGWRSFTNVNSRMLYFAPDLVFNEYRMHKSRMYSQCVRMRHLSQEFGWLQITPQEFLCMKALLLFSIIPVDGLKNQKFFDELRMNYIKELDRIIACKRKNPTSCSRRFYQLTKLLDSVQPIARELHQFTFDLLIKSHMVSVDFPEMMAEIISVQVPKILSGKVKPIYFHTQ
Experimental: Briefly, recombinant rat androgen receptor was combined with [3H]mibolerone in a buffer of 50 mM Tris-HCl, pH 7.5, 0.8 M NaCl, 10% glycerol, 2 mM dithiothreitol, 1 mg/mlL BSA, and 2% ethanol. DPM of the incubation buffer was measured to quantify displacement of the labeled ligand.

[5] = rats fed 5 mg/kg BW for 7 days; 20HE derived from Rhaponticum carthamoides; cited from earlier work
[6] = system: Primary human skeletal muscle cells; experiment: Protein synthesis by radio-labeled leucine incorporation in human skeletal myotubes (Example 3); details: 100 nM, 24 h of treatment
Experimental: Primary human skeletal muscle cells (a gift from Dr. William Cefalu of the Pennington Biomedical Research Center, Baton Rouge, La.) were seeded at a density of 10^5 cells/cm2 onto 24-well tissue culture plates. The cells were grown in DMEM supplemented with 10% FBS and a SingleQuot Kit (Lonza, Portsmouth, N.H.) containing epidermal growth factor, insulin, bovine serum albumin (BSA), fetuin, dexamethasone, and gentamicin/amphotericin-B. Cells were grown for 96 h in 5% CO2 at 37° C. until they reached 80% confluency, and the medium was replaced with differentiation medium (DMEM with 2% horse serum). After 18 days, myoblasts fused into multinucleated myotubes. […] Additionally, extracts of spinach or Ajuga turkestanica were also added. Radio-labeled leucine was used to assess any changes in protein synthesis. Decays per minute (DPM) were measured in a liquid scintillation counter (LS 6500, Beckman Coulter). Total protein was quantified using the bicinchoninic acid (BCA) method following the manufacturer's instructions (Pierce, Rockford, Ill.). The data were expressed as DPM per milligram of total protein.

CC(C)(O)CC[C@@H](O)[C@](C)(O)[C@H]1CC[C@@]2(O)C3=CC(=O)[C@@H]4C[C@@H](O)[C@@H](O)C[C@]4(C)[C@H]3CC[C@]12C [Example 20HE, 20-hydroxyecdysone]
protein synthesis, % of control (C2C12 myotubes [1]; 40 nM): 110 % of control | protein synthesis, % of control (peak effect) (C2C12 myotubes [1]; 0.1 μM): 120 % of control | regulation of Caspase 3 expression [2]: significant effect in down regulation | protein synthesis versus the control group (C2C12 myotubes [3]): statistically significant increase | inhibition of [3H]mibolerone binding [4]: did not show any significant inhibition | weight of liver, heart, kidneys and the tibialis anterior muscle [5]: increases | protein synthesis, % of control [6]: 120 % of control
